Experimental data taken from PMC4269296 (Nucleosides, nucleotides & nucleic acids, 2015).

How the values were obtained:
[1] = test system: Cell-Associated Virus (X4); test: Cell-associated transmission assay; assay type: cell-based, HIV-1; conditions: for EC50: Human immunodeficiency virus 1, read-out: Cell-Associated Virus CTC EC50; for Cell-Associated Virus CTC EC50: cell-associated transmission assay (X4)
[2] = test system: X4 and R5 cell free virus; assay type: cell-based, HIV-1; conditions: for EC50: Human immunodeficiency virus 1, read-out: EC50 against X4 and R5 cell free virus
X4 (IIIB) HIV-1 = test: Single-round; assay type: cell-based; conditions: Human immunodeficiency virus 1, IIIB, MAGI, read-out: Cell-Free Virus X4 EC50
in vitro = conditions: human
R5 (BaL) HIV-1 = test: Single-round; assay type: cell-based; conditions: Human immunodeficiency virus 1, BAL, MAGI, read-out: Cell-Free Virus R5 EC50
[3] = test system: HIV infected T4 lymphocytes; conditions: read-out: EC50 against HIV infected T4 lymphocytes; cited from earlier work

SMILES | EC50 [1] [µM] | EC50 [2] [µM] | EC50 (X4 (IIIB) HIV-1) [µM] | EC50 at 2 h (in vitro) [µM] | EC50 (R5 (BaL) HIV-1) [µM] | EC50 [3] [µM] | Cell-Associated Virus CTC EC50 [1] [µM] | fold higher inhibition against X4 virus than the R5 virus strain ([2]; ratio of R5 and X4 EC50)
Nc1ccn([C@@H]2CS[C@H](CO)O2)c(=O)n1 [3TC (2), (−)-2′,3′-Dideoxy-3′-thiacytidine] | 18.4 | 2.6 to 7.5 | 7.5 | > 100 | 2.6 | – | – | –
CCSCCCCCCCCCCCC(=O)O [12-Thioethyldodecanoic acid] | – | – | – | – | – | 9.4 | – | –
N=C(N)NCCC[C@H](NC(=O)[C@H](CCCNC(=N)N)NC(=O)[C@H](CCCNC(=N)N)NC(=O)[C@H](CCCNC(=N)N)NC(=O)[C@H](CCCNC(=N)N)NC(=O)[C@H](CCCNC(=N)N)NC(=O)[C@H](CCCNC(=N)N)NC(=O)CCCCCCCCCCCCC(=O)OC[C@@H]1O[C@H](n2ccc(N)nc2=O)CS1)C(=O)O [Compound 14, 1-[(−)-2′,3′-Dideoxy-3′-thiacytidine]tetradecan-1,14-dioate conjugate of PolyArg] | – | – | – | – | – | – | >30 | approximately 2 fold
N=C(N)NCCC[C@H](NC(=O)[C@H](CCCNC(=N)N)NC(=O)[C@H](CCCNC(=N)N)NC(=O)[C@H](CCCNC(=N)N)NC(=O)[C@H](CCCNC(=N)N)NC(=O)[C@H](CCCNC(=N)N)NC(=O)[C@H](CCCNC(=N)N)NC(=O)CCCCCCCCCCCCC(=O)OC[C@@H]1O[C@H](n2cc(F)c(N)nc2=O)CS1)C(=O)O [Compound 15, 1-[(−)-2′,3′-dideoxy-5-fluoro-3′-thiacytidine]tetradecan-1,14-dioate conjugate of PolyArg] | – | – | – | – | – | – | >30 | –
Cc1cn([C@H]2C[C@H](F)[C@@H](CO)O2)c(=O)[nH]c1=O [FLT (1), 3′-Fluoro-2′,3′-deoxythymidine] | > 100 | 0.1 to 0.2 | 0.2 | > 100 | 0.1 | – | – | –
Nc1nc(=O)n([C@@H]2CS[C@H](CO)O2)cc1F [FTC (3), (−) 2′,3′–Dideoxy-5-fluoro-3′-thiacytidine] | 21.9 | 0.18 to 0.48 | – | > 100 | – | – | – | –
